Reference: patent US6610289B2, “Mutated herpes simplex virus type 1 thymidine kinases and uses thereof” (The Board of Trustees of the University of Arkansas, priority 1998, dated 2003)
Like-named read-outs stand apart in the source and are kept apart here.

Columns and labels:
[1] = system: HSV-1 TK; assay: Substrate screen: phosphorylation of thymidine, TMP, GCV, ACV, dC, AZT by partially purified HSV-1 TKs; assay type: biochemical, herpes simplex virus type 1
Procedure: The activity of the purified HSV-1 TK was determined using the following standard reaction mixture for thymidine as a substrate (12): 3 μg of protein, 4 μM [^3H-methyl]thymidine (0.1 mCi/mmol), 20 mM potassium phosphate, pH 7.6, 1 mM DTT, 5 mM ATP, 5 mM MgCl2, 25 mM NaF, 40 mM KCl, and 0.5 mg/ml BSA in a total volume of 25 μl for 10 minutes at 37° C. To identify phosphorylated products, 20 μl of the reaction mixture was loaded onto a DE-81 filter and dried, washed once in 1 mM ammonium formate, twice more in 95% ethanol, and counted for radioactivity (12). Radioactivity was determined using an LKB 1214 Rackbeta liquid scintillation counter and corrected for background using controls with enzyme incubated in the absence of ATP. For TMPK activity, 20 μM [^3H-methyl]TMP was substituted for thymidine in the above assay mixture, and [^3H]TDP product was determined by separation from [^3H]TMP on thin layer PEI-cellulose plates developed in 0.35M LiCl (21). Amount of product converted to TDP was quantitated by scintillation counting of the excised TMP and TDP spots. The filter binding assay was used to quantitate the phosphorylation of [^3H]dC (200) μM and [^3H]AZT (200 μM) with the four enzymes. To compare relative enzymatic activities for [^3H]GCV (50 μM) and [^3H]ACV (50 μM), reactions were loaded onto small DE-52 columns packed in Pasteur pipettes as previously described (22).
As an initial screen for activity, each expressed HSV-1 TK enzyme was assayed for phosphorylation of the following substrates: thymidine (4 μM), TMP (20 μM), ACV (50 μM), GCV (50 μM), deoxycytidine (dC, 200 μM), or 3′-azido-2′,3′dideoxythymidine (AZT, 200 μM). Enzymatic conditions for optimal wild-type HSV-1 TK activities were utilized, thus results presented in Table 1 for each substrate were normalized to 100% values for comparative purposes. As expected, the wild-type Gln-125 HSV-1 TK efficiently phosphorylated each of these substrates. For each mutant, there was a striking decrease in their ability to phosphorylate pyrimidine nucleosides, and minimal TMPK activity for the TMP substrate.

[2] = biological target: T1, HSV-1 TK (Human herpesvirus 1, UniProt P0DTH5, Q125D); assay type: biochemical, herpes simplex virus type 1; conditions: substrate GCV
T1 construct: made in house; host or cells: E. coli BL21SY211 (pET-9a derived pET-TK plasmids)
T1 sequence (P0DTH5 1-376 Q125D): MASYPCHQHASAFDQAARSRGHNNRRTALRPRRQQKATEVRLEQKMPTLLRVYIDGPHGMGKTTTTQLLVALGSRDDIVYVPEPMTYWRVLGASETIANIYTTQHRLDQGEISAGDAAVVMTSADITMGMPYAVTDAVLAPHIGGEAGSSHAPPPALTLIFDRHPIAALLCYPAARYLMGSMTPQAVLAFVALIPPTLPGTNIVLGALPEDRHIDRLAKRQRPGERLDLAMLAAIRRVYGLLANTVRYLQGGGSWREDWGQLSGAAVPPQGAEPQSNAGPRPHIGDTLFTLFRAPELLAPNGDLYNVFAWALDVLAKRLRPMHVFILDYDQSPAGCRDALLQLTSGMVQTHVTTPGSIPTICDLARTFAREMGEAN
Procedure: (§1) For determination of Km values of thymidine and GCV for the four enzymes, the filter binding assay was utilized. The basic reaction components were as above, and the following enzyme concentrations, substrate ranges and times were used under linear initial velocity conditions: for [^3H]thymidine: parent Gln-125TK: 0.1 μg TK, 0.1-4 μM, 10 min; Asn-125TK: 0.2 μg TK, 0.25-10 μM, 15 min; Asp-125TK: 4 μg TK, 0.1-2.5 μM, 30 min; Glu-125TK 0.5 μg TK, 0.5-2.5 μM, 15 min. For [^3H]GCV: parent Gln-125TK: 2 μg TK, 5-100 μM, 15 min; Asn-125TK: 0.6 μg TK, 0.5-15 μM, 15 min; Asp-125TK: Not determined; Glu-125TK 4 μg TK, 50-1000 μM, 25 min. Each reaction was done in triplicate. For calculation of kinetic constants, non-linear regression Michaelis-Menten analyses were done using PSI-PLOT version 5.0 (Poly Software International).
(§2) Unlike the substrate screening assays presented in Table 1, linear velocity conditions for each enzyme and substrate were established prior to Km determinations.

[3] = system: HSV-1 TK; assay type: biochemical, herpes simplex virus type 1; conditions: substrate thymidine
Procedure: as §1, §2

[4] = system: HCT-116 cells; assay: MTT cell viability, sensitivity to GCV killing, HCT-116 cell lines expressing HSV-1 TKs; assay type: cell-based, human; conditions: HCT-116, GCV 0-5 μM, 4 days, FIG. 3B
Procedure: Cells were plated in triplicate and exposed to 0, 0.05, 0.5 or 5 μM GCV for four days. Cell viabilities were determined using MTT dye. […] FIG. 3A: NIH3T3 cell lines, FIG. 3B: HCT-116 cell lines; parental cells (noTK, dark bands); Asp125TK (Asp-#, brick band); Glu-125TK (Glu-#, cross-hatch bands); Asn-125TK (Asn-#, gray bands); wild-type HSV-1 TK (WT-#, striped bands).
A Moloney murine leukemia virus derived plasmid for the expression of HSV-TK, termed pLENTK, has been previously constructed (24). A unique BspEI-MluI restriction fragment within the HSV-TK sequence of pLENTK contains the Gln-125 mutation site. This fragment was removed from wild-type plasmid and replaced with the analogous fragments encoding each mutant. […] Along with wild-type HSV-1 TK plasmid, each mutant-TK plasmid was transfected individually into the murine fibroblast cell line, NIH 3T3, and the human colon tumor cell line, HCT-116, using lipofectin reagent (GIBCO/BRL) (2 μg plasmid, 14 μl lipid per 1×10^6 cells). Cells were maintained in RPMI 1640 media and selected with G418 (200 μg/ml for 2 weeks) as previously described (24). At least eight individual G418 resistant cell clones were picked and grown up for further characterization. Each clone was screened initially for growth inhibition by 25 μM GCV. Those clones that were sensitive were further analyzed for HSV-TK protein expression by Western blot analysis with a polyclonal, rabbit anti-HSV-TK antibody (a gift from Dr. Margaret Black). For each clone, cell numbers were normalized to 1×10^6, and equal protein loading was confirmed for each sample by gel staining. Blotted HSV-1 TK protein bands were visualized on film using ECL chromophore reagents (Amersham). For analysis of GCV sensitivity of different clones, NIH3T3 and HCT-116 cell sets were seeded in 96 well plates in 0.1 ml media (15,000 cells/well). The next day, a dose range of GCV (0.005 to 5 mM, n=3) was added in 0.1 ml media. After 4 days, MTT ([…]) was added for 1.5 hours, followed by DMSO solubilization of the cells and absorbance reading at 540 nm (25).
cDNA for each mutant was incorporated into a Moloney murine leukemia virus plasmid (24). The plasmids for wild-type HSV-1 TK and each mutant were individually transfected into either NIH3T3 cells or the human colon tumor cell line, HCT-116. Following drug selection in G418, individual cell clones were evaluated for sensitivity to GCV and relative levels of HSV-1 TK expression. Using an HSV-1 TK antibody and extracts normalized by protein and cell number, the relative expression levels of HSV-1 TK in each cell clone were determined.

Asp-125
Product formation ACVMP ([1]; substrate ACV 50 μM): 14 % of wild-type Gln-125
Product formation AZTMP ([1]; substrate AZT 200 μM): 8 % of wild-type Gln-125
Product formation GCVMP ([1]; substrate GCV 50 μM): 0.7 % of wild-type Gln-125
Product formation TDP (TMPK activity) ([1]; substrate TMP 20 μM): 4 % of wild-type Gln-125
Product formation dCMP ([1]; substrate dC 200 μM): >0.1 % of wild-type Gln-125
Product formation TMP ([1]; substrate thymidine 4 μM): 0.5 % of wild-type Gln-125
Ganciclovir phosphorylation kinetics (in words) [2]: poorly phosphorylate ganciclovir, but with non-linear kinetics
Ganciclovir phosphorylation kinetics (in words) ([2]; listed as Asp-125TK): no linear velocity conditions could be established
Change of kcat for thymidine relative to wild-type (in words) [3]: doubled
Increase of Km for thymidine relative to wild-type enzyme [3]: ~6000 fold
kcat thymidine [3]: 0.11 s⁻¹
Km ([3]; read-out: Km thymidine): 6 mM
Dose dependent cell killing by GCV (cell viability, MTT) [4]: little effect on cell viability
